One may read the EC50 as the concentration at which the effect is half-maximal. The low end stands for higher potency in that assay, the high end for lower potency in that assay. Usually Ki stands for the dissociation constant of the complex between target and ligand, obtained from inhibition or displacement. Low readings indicate a stronger hold on the target, high ones a looser hold on the target. A word on the Kd: it is the concentration at which binding is half-saturated. The term IC50 denotes the midpoint of a concentration-inhibition curve.

The target in assay [1] is T1, HIV-1 integrase (Human immunodeficiency virus type 1 group M subtype B, UniProt P04585).
T1 construct: Integrase is a 32 kDA viral protein that is biologically active under a multimeric form
Nature of the assay: biochemical. How it is done: The simultaneous measurement of integrase-DNA interaction and subsequent 3′-processing activity by steady-state fluorescence anisotropy was performed as described in Guiot et al. (2006). […] After the initial DNA-binding step (performed at 25° C.), the 3′-processing activity was measured at 37° C. by fixed-time experiments: The reaction was stopped at varying times by adding SDS (0.25% final) which disrupts all IN-DNA complexes in the sample. The IN-mediated cleavage of the terminal GT dinucleotide (labeled by fluorescein on the 3′-end) leads to a significant decrease of r as compared to the r value corresponding to the fluorescein-labeled unprocessed DNA substrate. The fraction of released dinucleotide is calculated by using Eq. (1): […]

Assay [2] deals with T1, HIV-1 integrase. Nature of the assay: biochemical. The format is binding. How it is done:
Fluorescein-labeled peptides (40 nM) were mixed with varying concentrations of integrase in 20 mM Tris pH 7.2, 50 mM NaCl, 10 mM MgCl2, and the r values were recorded.
Effect of the different peptides on the integrase (IN) activity, DNA binding and IN/DNA dissociation were evaluated as described in Example III.1 above, using fluorescence polarization and anisotropy measurements. Binding constant of the peptide for IN was determined by steady state fluorescence and anisotropy.

The target of assay [3] is IN/DNA complexes (Human immunodeficiency virus type 1 group M subtype B, UniProt P04585). Kind of assay: Dissociation of pre-formed IN-DNA substrate complexes. The format is biochemical, HIV-1. How it is done:
For dissociation experiments, IN-DNA substrate complexes were pre-formed at 25° C. before addition of peptides. The peptide-mediated dissociation of complexes was then studied at the same temperature by measuring the decrease in the r value as a function of time.

Assay [4] has as its target IN/LEDGF complex (Human immunodeficiency virus type 1 group M subtype B, UniProt P04585). Nature of the assay: Dissociation of IN/LEDGF complex (AlphaScreen, immunoprecipitation). In kind it is biochemical. The protocol: Dissociation of IN/LEDGF complex was measured by fluorescence resonance energy transfer (AlphaScreen® technology) and immunoprecipitation experiments: • Amplified Luminescent Proximity Homogeneous Assay (ALPHA): when the proteins (IN and LEDGF), linked to acceptor and donor beads, interact together (i.e., are into close proximity), a photosignal (a high amplified signal with output in the 520-560 nm range) is detected; when the proteins are not in close proximity, the reactive oxygen decays and there is no detectable signal generated; • immunoprecipitation (IP) was performed using polyclonal anti LEDGF antibodies (purchased from Santa Cruz Biotechnology, USA) and polyclonal HA antibodies (purchased from Eurogentec, Belgium). Cell line expression HA-tagged integrase was using for the experiment in the presence of increasing concentrations of peptide inhibitors.
(In general: Bead proximity is the source of the signal in Alpha formats.)

In assay [5] the test system is efavirenz-resistance HIV strain harbouring K103N and N341V mutations on reverse transcriptase. The format is in vivo, Hu-PBL-SCID transgenic mice. The settings on record: EFZ resistance strain; 20 mg/kg/day; peptides formulated with CADY-2c/CADY-1S1. The protocol: (§1) The potency of the peptides p27 (SEQ ID NO: 25) and p16 (SEQ ID NO: 19) was assessed in vivo following intravenous challenge of Hu-PBL-SCID transgenic mice (in which human (hu) peripheral blood leukocytes (PBLs) from healthy Epstein-Barr virus (EBV)-seropositive donors are injected into severe combined immunodeficiency (SCID) mice; Mosier et al., 1988). The mice (6 to 8 week-old male mice, 5 animals per group) were infected with wild type HIV 1 virus or efavirenz-resistance HIV strain harbouring K103N and N341V mutations on reverse transcriptase. Infected mice were treated with peptides formulated with the peptide vector CADY-2c (see above) in water at a ratio 1/20, and then particles were coated with 3% of CADY-1S1 (see above), as described in International Application WO 2007/069090. Particles were injected intravenously (100 μl) every 2 days for 1 week, then HIV-1 copy were quantified by quantitative PCR. Efavirenz (a non-nucleoside reverse transcriptase inhibitor; EFZ) was used a positive drug control.

Assay [6] deals with wild type HIV 1 virus. Nature of the assay: HIV propagation in Hu-PBL-SCID mice, wild type virus. In kind it is in vivo, Hu-PBL-SCID transgenic mice. To be noted: 20 mg/kg; peptides formulated with CADY-2c/CADY-1S1; HIV-1 DNA copies in splenocyte extracts. How it is done: as §1
Assay [7] concerns HIV-1 strain BH10. To be noted: peptide with Pep-1 or Pep-3 at ratio 20/1, combinations with Pep-3.
For assay [8], the system named is HIV-1 215Y. The format is cell-based. To be noted: AZT-resistant.
Assay [9] has as its system HIV-1 74V. In kind it is cell-based. To be noted: resistant to ddI and ddC.

Where “and” joins values, the source holds several entries; their conditions need not be identical. Equal values may be shown once. Read-outs that look alike come from different tables or passages of the source. Where no end group is shown, it is not given here.

For the sequence GTKWLTEVWPL [Peptide P16], the figures for the 50% effective concentration (EC50) in [1], in assay [3] and in [4] were 10 µM, 11 µM and 0.8 µM, respectively. In [1], this sequence yielded a Ki of 10 µM. Besides, the Kd in assay [2] is 0.12 µM. In assay [5], the “reduction of viral propagation” value is 58%. Also, the “HIV propagation in vivo (in words)” value in [6] is given as “block HIV propagation in vivo”. Further, the half-inhibitory concentration (IC50) in assay [7] stood at 0.0059 µM.
For GTKWLTEWIPLTAE [Peptide P27], the IC50 in assay [8] was 0.0027 µM and 0.0039 µM; in assay [9], 0.0038 µM and 0.0049 µM; in assay [7], 0.0014 µM. Moreover, the EC50 in assay [1] and in assay [3] was greater than 100 µM throughout. The Ki in assay [1] is greater than 100 µM. The Kd in assay [2] was greater than 100 µM; in [2] (read-out: Kd IN binding, Table 10, cell prints μM), greater than 100 µM. Also, the “reduction of viral propagation” value in assay [5] is reported as 72%. In addition, the “HIV propagation in vivo (in words)” value in [6] is given as “block HIV propagation in vivo”.

Source of the values: patent US20110294728A1, “Antiviral Polypeptides” (priority 2008, published 2011).
